These results are taken from patent US12612410B2 (CHILDREN'S HOSPITAL MEDICAL CENTER, priority 2020, dated 2026).

The assay deals with T1, FLT3 N841I (Homo sapiens, UniProt P36888, N841I).
T1 construct: host or cells: E. coli BL21-derived host (T7 phage) or HEK-293
T1 sequence (P36888 27-993 N841I): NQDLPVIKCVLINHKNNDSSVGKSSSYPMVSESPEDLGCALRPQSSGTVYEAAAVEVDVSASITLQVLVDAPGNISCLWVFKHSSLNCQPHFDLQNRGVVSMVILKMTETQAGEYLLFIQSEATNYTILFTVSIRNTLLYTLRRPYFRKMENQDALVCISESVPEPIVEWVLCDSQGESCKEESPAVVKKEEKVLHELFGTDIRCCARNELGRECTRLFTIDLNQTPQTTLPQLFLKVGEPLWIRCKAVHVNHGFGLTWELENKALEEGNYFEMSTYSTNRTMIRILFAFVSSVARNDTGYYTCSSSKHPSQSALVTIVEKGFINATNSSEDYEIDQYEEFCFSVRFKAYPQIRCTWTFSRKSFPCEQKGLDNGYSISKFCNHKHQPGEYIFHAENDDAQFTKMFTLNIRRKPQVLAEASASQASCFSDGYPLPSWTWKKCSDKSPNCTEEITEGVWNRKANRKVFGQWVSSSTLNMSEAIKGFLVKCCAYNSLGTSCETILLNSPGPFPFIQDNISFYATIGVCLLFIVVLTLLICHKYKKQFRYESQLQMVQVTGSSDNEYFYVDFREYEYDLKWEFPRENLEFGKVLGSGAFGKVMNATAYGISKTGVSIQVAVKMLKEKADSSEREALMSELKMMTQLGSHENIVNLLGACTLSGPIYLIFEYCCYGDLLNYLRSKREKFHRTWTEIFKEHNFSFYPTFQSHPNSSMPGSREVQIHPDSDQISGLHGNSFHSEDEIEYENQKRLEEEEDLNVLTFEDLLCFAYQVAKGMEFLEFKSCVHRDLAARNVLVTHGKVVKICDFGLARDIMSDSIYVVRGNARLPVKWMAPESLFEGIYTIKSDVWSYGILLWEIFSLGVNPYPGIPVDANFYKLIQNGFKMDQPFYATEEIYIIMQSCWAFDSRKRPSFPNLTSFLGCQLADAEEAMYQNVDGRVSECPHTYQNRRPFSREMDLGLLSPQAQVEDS
Nature of the assay: DiscoverX KINOMEscan competition binding, FLT3 N841I. The text has this:
Kinase binding data were obtained for various exemplary compounds prepared according to Examples 1-24 using the DiscoverX KINOMVIEscan® active site-directed competition binding site-directed assay protocol described below. […] As a result, the data report thermodynamic interaction affinities (Kd values), rather than IC50 values that are dependent on ATP concentrations. The assay uses a DNA-tagged version of the protein kinase, and an immobilized ligand bound to a solid support. Compounds that directly or indirectly prevent kinase binding to the immobilized ligand reduce the amount of kinase captured on the solid support, which is detected using an ultra-sensitive qPCR method. Affinity constants reported from the assay have been reported to be independent of the immobilized ligand used that is coupled to the solid support (See supplemental information in Fabian, M. A. et. al., (2005) Nat. Biotechnol. 23, 329-336; Wodicka, L. M. et. al., (2010) Chem. Biol. 17, 1241-1249.)
Kinase-tagged T7 phage strains were prepared in an E. coli host derived from the BL21 strain. E. coli were grown to log-phase and infected with T7 phage and incubated with shaking at 32° C. until lysis. The lysates were centrifuged and filtered to remove cell debris. The remaining kinases were produced in HEK-293 cells and subsequently tagged with DNA for qPCR detection. Streptavidin-coated magnetic beads were treated with biotinylated small molecule ligands for 30 minutes at room temperature to generate affinity resins for kinase assays. The liganded beads were blocked with excess biotin and washed with blocking buffer (SeaBlock (Pierce), 1% BSA, 0.05% Tween 20, 1 mM DTT) to remove unbound ligand and to reduce non-specific binding. Binding reactions were assembled by combining kinases, liganded affinity beads, and test compounds in 1× binding buffer (20% SeaBlock, 0.17×PBS, 0.05% Tween 20, 6 mM DTT). Test compounds were prepared as 111× stocks in 100% DMSO. Kds were determined using an 11-point 3-fold compound dilution series with three DMSO control points. All compounds for Kd measurements are distributed by acoustic transfer (non-contact dispensing) in 100% DMSO. The compounds were then diluted directly into the assays such that the final concentration of DMSO was 0.9%. All reactions were performed in polypropylene 384-well plates. Each was a final volume of 0.02 mL. The assay plates were incubated at room temperature with shaking for 1 hour and the affinity beads were washed with wash buffer (1×PBS, 0.05% Tween 20). The beads were then re-suspended in elution buffer (1×PBS, 0.05% Tween 20, 0.5 μM nonbiotinylated affinity ligand) and incubated at room temperature with shaking for 30 minutes. The kinase concentration in the eluates was measured by qPCR.
Binding constants (Kds) were calculated with a standard dose-response curve using the Hill equation. The Hill Slope was set to −1. Curves were fitted using a non-linear least square fit with the Levenberg-Marquardt algorithm.

Consider `CC1(c2cn3c(-c4cccc(N[C@H]5CNC[C@@H]5F)n4)cnc3cn2)CC1` [Compound 1, N-((3S,4S)-4-fluoropyrrolidin-3-yl)-6-(6-(1-methylcyclopropyl)imidazo[1,2-a]pyrazin-3-yl)pyridin-2-amine], for which the equilibrium dissociation constant (Kd) (commonly the equilibrium constant for the complex coming apart) was 120 pM.

As for `CC1(c2cn3c(-c4cccc(N[C@@H]5CCNC5)n4)cnc3cn2)CC1` [Compound 3, (R)-6-(6-(1-methylcyclopropyl)imidazo[1,2-a]pyrazin-3-yl)-N-(pyrrolidin-3-yl)pyridin-2-amine], the equilibrium dissociation constant (Kd) amounted to 120 pM.

Molecule `CC1(c2cn3c(-c4cccc(N[C@H]5CNCC56CC6)n4)cnc3cn2)CC1` [Compound 5, (R)-N-(6-(6-(1-methylcyclopropyl)imidazo[1,2-a]pyrazin-3-yl)pyridin-2-yl)-5-azaspiro[2.4]heptan-7-amine] showed a Kd of 91 pM.

`FC(F)(F)C1(c2cn3c(-c4cccc(N[C@@H]5CCNC5)n4)cnc3cn2)CC1` [Compound 10, (R)-N-(pyrrolidin-3-yl)-6-(6-(1-(trifluoromethyl)cyclopropyl)imidazo[1,2-a]pyrazin-3-yl)pyridin-2-amine] came in with a dissociation constant Kd of 290 pM.

Consider `FC(F)c1cn2c(-c3cccc(N[C@H]4CNC[C@@H]4F)n3)cnc2cn1` [Compound 16, 6-(6-(difluoromethyl)imidazo[1,2-a]pyrazin-3-yl)-N-((3S,4S)-4-fluoropyrrolidin-3-yl)pyridin-2-amine], for which binding was put at a Kd of 650 pM.

On to `FC(F)c1cn2c(-c3cccc(N[C@H]4CNCC[C@@H]4F)n3)cnc2cn1` [Compound 25, 6-(6-(difluoromethyl)imidazo[1,2-a]pyrazin-3-yl)-N-((3S,4S)-4-fluoropiperidin-3-yl)pyridin-2-amine], for which the affinity, expressed as Kd, was 270 pM.

`CC(C)(O)c1cn2c(-c3cccc(N[C@@H]4CCCNC4)n3)cnc2cn1` [Compound 30, (R)-2-(3-(6-(piperidin-3-ylamino)pyridin-2-yl)imidazo[1,2-a]pyrazin-6-yl)propan-2-ol]: the dissociation constant (Kd) is 3500 pM.

For the molecule `CC(C)(O)c1cn2c(-c3cccc(N[C@H]4CNCC[C@@H]4F)n3)cnc2cn1` [Compound 31, 2-(3-(6-(((3S,4S)-4-fluoropiperidin-3-yl)amino)pyridin-2-yl)imidazo[1,2-a]pyrazin-6-yl)propan-2-ol], the Kd was 2100 pM.

Consider `FC(F)(F)COc1cn2c(-c3cccc(N[C@@H]4CCNC4)n3)cnc2cn1` [Compound 38, (R)-N-(pyrrolidin-3-yl)-6-(6-(2,2,2-trifluoroethoxy)imidazo[1,2-a]pyrazin-3-yl)pyridin-2-amine], for which the dissociation constant (Kd) was 520 pM.

In the case of `F[C@H]1CNC[C@@H]1Nc1cccc(-c2cnc3cnc(C4CC4)cn23)n1` [Compound 50, 6-(6-cyclopropylimidazo[1,2-a]pyrazin-3-yl)-N-((3S,4S)-4-fluoropyrrolidin-3-yl)pyridin-2-amine], the dissociation constant Kd was 250 pM.

Turning to `Cn1cc(-c2cn3c(-c4cccc(N[C@H]5CNC[C@@H]5F)n4)cnc3cn2)cn1` [Compound 52, N-((3S,4S)-4-fluoropyrrolidin-3-yl)-6-(6-(1-methyl-1H-pyrazol-4-yl)imidazo[1,2-a]pyrazin-3-yl)pyridin-2-amine], binding was characterised by a dissociation constant (Kd) of 240 pM.
